Measurements taken from paper PMC12638379, “An innovative approach to development of new pyrazolylquinolin-2-one hybrids as dual EGFR and BRAF^V600E inhibitors” (Molecular Diversity, 2025).
Where two headings read alike, the source gives them in different places.

What was measured:
NCI 60 cancer cell lines = experiment: NCI anticancer screening over a panel of 60 cancer cells, single concentration 10 µM; format: cell-based, human; conditions: Homo sapiens, read-out: % Growth Inhibition (GI %)
In short: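 Run under the NCI Compound Evaluation Branch protocol, each compound was tested once at 10 µM. The panel comprised 60 cancer cell lines of diverse tissue origin, including leukemia, lung, colon, CNS, renal, ovarian, breast and prostate.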

[1] = MTT cytotoxicity on normal cell line WI-38; conditions: human, WI-38 normal cells, % viability
normal cell line WI-38 = experiment: MTT cytotoxicity on normal cell line WI-38
BRAF^V600E = BRAF^V600E (Homo sapiens, UniProt P15056, V600E); experiment: BRAF^V600E inhibitory assay (B-Raf (V600E) Kinase Assay); format: biochemical; conditions: read-out: BRAF^V600E inhibition IC50 ± SEM
Sequence of BRAF^V600E (P15056 whole entry V600E): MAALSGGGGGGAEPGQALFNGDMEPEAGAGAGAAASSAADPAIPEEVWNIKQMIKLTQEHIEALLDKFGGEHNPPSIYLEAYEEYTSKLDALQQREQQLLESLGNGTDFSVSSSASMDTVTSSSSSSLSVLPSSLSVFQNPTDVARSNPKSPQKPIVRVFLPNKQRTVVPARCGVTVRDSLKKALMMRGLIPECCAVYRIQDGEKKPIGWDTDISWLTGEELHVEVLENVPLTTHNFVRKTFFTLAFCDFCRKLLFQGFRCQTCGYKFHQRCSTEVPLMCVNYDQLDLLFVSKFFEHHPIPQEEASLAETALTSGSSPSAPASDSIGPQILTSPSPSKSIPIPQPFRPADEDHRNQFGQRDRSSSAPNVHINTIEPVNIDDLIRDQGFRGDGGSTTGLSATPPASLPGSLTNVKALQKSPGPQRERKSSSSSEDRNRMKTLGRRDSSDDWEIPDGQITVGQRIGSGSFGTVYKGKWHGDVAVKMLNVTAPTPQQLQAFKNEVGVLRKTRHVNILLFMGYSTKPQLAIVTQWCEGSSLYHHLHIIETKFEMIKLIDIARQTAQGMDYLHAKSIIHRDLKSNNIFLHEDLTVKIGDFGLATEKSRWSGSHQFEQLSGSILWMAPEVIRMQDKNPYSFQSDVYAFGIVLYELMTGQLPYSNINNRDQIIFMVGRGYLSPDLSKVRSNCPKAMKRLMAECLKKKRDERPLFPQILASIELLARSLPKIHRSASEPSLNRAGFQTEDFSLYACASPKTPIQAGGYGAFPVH

Work on `C/C(=N\Nc1ccc(S(N)(=O)=O)cc1)c1cnn(-c2cc(=O)[nH]c3ccc(Cl)cc23)c1C` [Compound 4d, (E)-4-(2-(1-(1-(6-chloro-2-oxo-1,2-dihydroquinolin-4-yl)-5-methyl-1H-pyrazol-4-yl)ethylidene)hydrazineyl)benzenesulfonamide] yielded an inhibition at 10 µM (NCI 60 cancer cell lines; Leukemia SR, 10 μM) of 71.6%, an inhibition at 10 µM (NCI 60 cancer cell lines; MCF7, Breast cancer MCF7, 10 μM) of 36.3% and an inhibition at 10 µM (NCI 60 cancer cell lines; MDA-MB-231, Breast cancer MDA-MB-231/ATCC, 10 μM) of 51.7%. The inhibition at 10 µM (NCI 60 cancer cell lines; MDA-MB-435, Melanoma MDA-MB-435, 10 μM) was 27.3%, the inhibition at 10 µM (NCI 60 cancer cell lines; MDA-MB-468, Breast cancer MDA-MB-468, 10 μM) was 47.2% and the inhibition at 10 µM (NCI 60 cancer cell lines; MOLT-4, Leukemia MOLT-4, 10 μM) was 34.3%. For the same compound, the inhibition at 10 µM (NCI 60 cancer cell lines; Melanoma M14, 10 μM) was 20.7%, the inhibition at 10 µM (NCI 60 cancer cell lines; Melanoma MALM-3M, 10 μM) was 44.5% and the inhibition at 10 µM (NCI 60 cancer cell lines; NCI-H23, Non-small cell lung cancer NCI-H23, 10 μM) was 16.9%. For the same compound, the inhibition at 10 µM (NCI 60 cancer cell lines; NCI-H226, Non-small cell lung cancer NCI-H226, 10 μM) was 17.6%, the inhibition at 10 µM (NCI 60 cancer cell lines; NCI-H322M, Non-small cell lung cancer NCI-H322M, 10 μM) was 8.41% and the inhibition at 10 µM (NCI 60 cancer cell lines; NCI-H460, Non-small cell lung cancer NCI-H460, 10 μM) was 6.52%. The inhibition at 10 µM (NCI 60 cancer cell lines; NCI-H522, Non-small cell lung cancer NCI-H522, 10 μM) was 44.8%, the inhibition at 10 µM (NCI 60 cancer cell lines; NCI/ADR-RES, Ovarian cancer NCI/ADR-RES, 10 μM) was 5.85% and the inhibition at 10 µM (NCI 60 cancer cell lines; OVCAR-3, Ovarian cancer OVCAR-3, 10 μM) was 23.4%. For the same compound, the inhibition at 10 µM (NCI 60 cancer cell lines; OVCAR-4, Ovarian cancer OVCAR-4, 10 μM) was 24.2%, the inhibition at 10 µM (NCI 60 cancer cell lines; OVCAR-5, Ovarian cancer OVCAR-5, 10 μM) was 11.5% and the inhibition at 10 µM (NCI 60 cancer cell lines; OVCAR-8, Ovarian cancer OVCAR-8, 10 μM) was 6.15%. The inhibition at 10 µM (NCI 60 cancer cell lines; Prostate cancer PC-3, 10 μM) was 18.5%, the inhibition at 10 µM (NCI 60 cancer cell lines; RPMI-8226, Leukemia RPMI-8226, 10 μM) was 15.7% and the inhibition at 10 µM (NCI 60 cancer cell lines; RXF 393, Renal cancer RXF 393, 10 μM) was less than 5%. It also gave an inhibition at 10 µM (NCI 60 cancer cell lines; SF-268, CNS Cancer SF-268, 10 μM) of 28.7%, an inhibition at 10 µM (NCI 60 cancer cell lines; SF-295, CNS Cancer SF-295, 10 μM) of 9.48% and an inhibition at 10 µM (NCI 60 cancer cell lines; SF-539, CNS Cancer SF-539, 10 μM) of 33%. For the same compound, the inhibition at 10 µM (NCI 60 cancer cell lines; SK-MEL-2, Melanoma SK-MEL-2, 10 μM) was 27.2%, the inhibition at 10 µM (NCI 60 cancer cell lines; SK-MEL-5, Melanoma SK-MEL-5, 10 μM) was 21.8% and the inhibition at 10 µM (NCI 60 cancer cell lines; SK-MEL-28, Melanoma SK-MEL-28, 10 μM) was 24.7%. It also gave an inhibition at 10 µM (NCI 60 cancer cell lines; SK-OV-3, Ovarian cancer SK-OV-3, 10 μM) of 24.1%, an inhibition at 10 µM (NCI 60 cancer cell lines; SN12C, Renal cancer SN12C, 10 μM) of 27% and an inhibition at 10 µM (NCI 60 cancer cell lines; SNB-19, CNS Cancer SNB-19, 10 μM) of 24.9%. The inhibition at 10 µM (NCI 60 cancer cell lines; SNB-75, CNS Cancer SNB-75, 10 μM) was 35.4%, the inhibition at 10 µM (NCI 60 cancer cell lines; SW-620, Colon cancer SW-620, 10 μM) was 7.13% and the inhibition at 10 µM (NCI 60 cancer cell lines; T47D, Breast cancer T-47D, 10 μM) was 54%. The inhibition at 10 µM (NCI 60 cancer cell lines; TK-10, Renal cancer TK-10, 10 μM) was less than 5%, the inhibition at 10 µM (NCI 60 cancer cell lines; U-251, CNS Cancer U251, 10 μM) was 26.3% and the inhibition at 10 µM (NCI 60 cancer cell lines; UACC-62, Melanoma UACC-62, 10 μM) was 41.8%. It also gave an inhibition at 10 µM (NCI 60 cancer cell lines; UACC-257, Melanoma UACC-257, 10 μM) of 4.52%, an inhibition at 10 µM (NCI 60 cancer cell lines; UO-31, Renal cancer UO-31, 10 μM) of 37.7% and a viability at 24 h, 0.4 µM ([1]; WI38, 0.4uM (log conc. -0.41)) of 80.9%. For the same compound, the viability at 24 h, 1.6 µM ([1]; WI38, 1.6uM (log conc. 0.19)) was 73.3%, the viability at 24 h, 6.3 µM ([1]; WI38, 6.3uM (log conc. 0.8)) was 63.5% and the viability at 24 h, 25 µM ([1]; WI38, 25uM (log conc. 1.4)) was 56.2%. The viability at 24 h, 100 µM ([1]; WI38, 100uM (log conc. 2)) was 46.8%, the IC50 (normal cell line WI-38; Homo sapiens, read-out: Antiproliferative activity IC50 ± SEM) was 62.5 ± 2.49 µM and the “% viability” value (normal cell line WI-38; WI38, 0.4uM (log conc. -0.41), listed as Ws4, 0.4 µM) was 80.87%. The “% viability” value (normal cell line WI-38; WI38, 1.6uM (log conc. 0.19), listed as Ws4, 1.6 µM) was 73.32%, the “% viability” value (normal cell line WI-38; WI38, 6.3uM (log conc. 0.8), listed as Ws4, 6.3 µM) was 63.52% and the “% viability” value (normal cell line WI-38; WI38, 25uM (log conc. 1.4), listed as Ws4, 25 µM) was 56.21%. For the same compound, the “% viability” value (normal cell line WI-38; WI38, 100uM (log conc. 2), listed as Ws4, 100 µM) was 46.82% and the IC50 (BRAF^V600E) was 0.249 ± 0.01 µM.
